Experimental data taken from PubChem BioAssay (NCI).
“And” between values parts separate entries of the source, which are not always exact repeats. Equal entries are not always repeated.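 In this assay, cells in 96-well plates receive the compound at five concentrations for 48 hours. Endpoints are linearly interpolated between the surrounding concentrations. GI50: concentration for 50% inhibition of growth. TGI: concentration producing complete growth inhibition.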

Experiments:
Experiment in all cases: NCI anticancer screen, dose series, 48 h
[1] = system: KM12 colon
[2] = system: KM20L2 colon
[3] = system: UO-31 renal
[4] = system: NCI-H460 lung
[5] = system: COLO 205 colon
[6] = system: RPMI-8226 leukemia
[7] = system: SF-539 CNS
[8] = system: SK-MEL-2 melanoma
[9] = system: UACC-257 melanoma
[10] = system: HL-60(TB) leukemia
[11] = system: A549 NSCLC
[12] = system: M19-MEL melanoma
[13] = system: NCI-H522 lung
[14] = system: 786-0 renal
[15] = system: SK-MEL-5 melanoma
[16] = system: CAKI-1 renal
[17] = system: SN12C renal
[18] = system: MALME-3M melanoma
[19] = system: SF-268 CNS
[20] = system: HCC-2998 colon
[21] = system: SK-MEL-28 melanoma
[22] = system: ACHN renal
[23] = system: DMS 273 small cell lung
[24] = system: OVCAR-8 ovarian
[25] = system: RXF 393 renal
[26] = system: K-562 leukemia
[27] = system: SK-OV-3 ovarian
[28] = system: DMS 114 small cell lung
[29] = system: HOP-18 NSCLC
[30] = system: U251 CNS
[31] = system: IGROV1 ovarian
[32] = system: MOLT-4 leukemia
[33] = system: LXFL 529 NSCLC
[34] = system: CCRF-CEM leukemia
[35] = system: NCI-H226 lung
[36] = system: SNB-19 CNS
[37] = system: DLD-1 colon
[38] = system: HCT-116 colon
[39] = system: HOP-62 NSCLC
[40] = system: A498 renal
[41] = system: OVCAR-3 ovarian
[42] = system: SNB-78 CNS
[43] = system: TK-10 renal
[44] = system: M14 melanoma
[45] = system: OVCAR-4 ovarian
[46] = system: UACC-62 melanoma
[47] = system: SW-620 colon
[48] = system: SNB-75 CNS
[49] = system: HCT-15 colon
[50] = system: RXF-631 renal
[51] = system: OVCAR-5 ovarian
[52] = system: SF-295 CNS
[53] = system: LOX IMVI melanoma
[54] = system: NCI-H23 lung
[55] = system: XF 498 CNS
[56] = system: HOP-92 NSCLC
[57] = system: EKVX NSCLC
[58] = system: HT29 colon
[59] = system: SR leukemia
[60] = system: MCF7 breast
[61] = system: MDA-MB-435
[62] = system: MDA-MB-231 breast
[63] = system: DU-145 prostate

COc1cc2c(c(OC)c1)C1(CC(CC#N)C2)SCCS1 (configuration not stated)
TGI [1]: > 100 µM
TGI [2]: > 100 µM
TGI [3]: > 100 µM
TGI [4]: > 100 µM
TGI [5]: > 100 µM
TGI [6]: > 100 µM
TGI [7]: > 100 µM
TGI [8]: > 100 µM
TGI [9]: > 100 µM
TGI [10]: > 100 µM
TGI [11]: > 100 µM
TGI [12]: > 100 µM
TGI [13]: 4.69 µM
TGI [14]: > 100 µM
TGI [15]: > 100 µM
TGI [16]: > 100 µM
TGI [17]: > 100 µM
TGI [18]: > 100 µM
TGI [19]: > 100 µM
TGI [20]: > 100 µM
TGI [21]: > 100 µM
TGI [22]: > 100 µM
TGI [23]: > 100 µM
TGI [24]: > 100 µM
TGI [25]: > 100 µM
TGI [26]: > 100 µM
TGI [27]: > 100 µM
TGI [28]: > 100 µM
TGI [29]: > 100 µM
TGI [30]: > 100 µM
TGI [31]: > 100 µM
TGI [32]: > 100 µM
TGI [33]: > 100 µM
TGI [34]: > 100 µM
TGI [35]: > 100 µM
TGI [36]: > 100 µM
TGI [37]: > 100 µM
TGI [38]: > 100 µM
TGI [39]: > 100 µM
TGI [40]: > 100 µM
TGI [41]: > 100 µM
TGI [42]: > 100 µM
TGI [43]: > 100 µM
TGI [44]: > 100 µM
TGI [45]: > 100 µM
TGI [46]: > 100 µM
TGI [47]: > 100 µM
TGI [48]: > 100 µM
TGI [49]: > 100 µM
TGI [50]: > 100 µM

O=C(/C=C/c1c(O)ccc2ccccc12)c1ccccc1
TGI [51]: > 100 µM
TGI [1]: > 100 µM
TGI [2]: > 100 µM
TGI [3]: > 100 µM
TGI [52]: > 100 µM
TGI [4]: > 100 µM
TGI [5]: > 100 µM
TGI [6]: 80.6 µM
TGI [7]: > 100 µM
TGI [8]: > 100 µM
TGI [9]: > 100 µM
TGI [10]: > 100 µM
TGI [11]: > 100 µM
TGI [12]: > 100 µM
TGI [13]: > 100 µM
TGI [14]: > 100 µM
TGI [15]: > 100 µM
TGI [53]: 44.9 µM
TGI [16]: > 100 µM
TGI [17]: > 100 µM
TGI [18]: > 100 µM
TGI [19]: > 100 µM
TGI [20]: > 100 µM
TGI [21]: > 100 µM
TGI [22]: > 100 µM
TGI [23]: > 100 µM
TGI [24]: > 100 µM
TGI [25]: > 100 µM
TGI [26]: > 100 µM
TGI [27]: > 100 µM
TGI [28]: > 100 µM
TGI [54]: > 100 µM
TGI [29]: > 100 µM
TGI [30]: > 100 µM
TGI [31]: > 100 µM
TGI [32]: > 100 µM
TGI [33]: > 100 µM
TGI [55]: > 100 µM
TGI [34]: > 100 µM
TGI [35]: > 100 µM
TGI [36]: > 100 µM
TGI [37]: > 100 µM
TGI [38]: > 100 µM
TGI [39]: > 100 µM
TGI [56]: > 100 µM
TGI [40]: > 100 µM
TGI [41]: > 100 µM
TGI [42]: > 100 µM
TGI [43]: > 100 µM
TGI [44]: > 100 µM
TGI [57]: > 100 µM
TGI [45]: > 100 µM
TGI [46]: > 100 µM
TGI [47]: 83.7 µM
TGI [48]: 4.52 µM
TGI [49]: > 100 µM
TGI [50]: > 100 µM
TGI [58]: 30.2 µM
TGI [59]: > 100 µM

COc1ccc(/C=C\c2cc(OC)c(OC)c(OC)c2)cc1OC(=O)NCCN(C)C
GI50 [1]: < 0.0001 µM
TGI [2]: 1.17 µM
TGI [3]: > 63.2 µM
TGI [4]: 0.00485 µM
GI50 [5]: 0.187 µM
TGI [5]: 4.69 µM
TGI [7]: 0.00328 µM
TGI [10]: 0.00338 µM
GI50 [11]: < 0.028 µM
TGI [11]: > 41.3 µM
TGI [12]: 20.1 µM
TGI [13]: 0.000483 µM
TGI [14]: > 34.8 µM
TGI [15]: 0.0474 µM
TGI [53]: > 100 µM
TGI [16]: > 100 µM
TGI [60]: > 100 µM
TGI [18]: 98.3 µM
GI50 [19]: 0.0336 µM
GI50 [20]: < 0.0469 µM
TGI [20]: 0.487 µM
TGI [61]: < 0.0001 µM
GI50 [21]: < 0.0001 µM
TGI [21]: 43.1 µM
TGI [22]: > 41.7 µM
TGI [23]: 0.000109 µM
TGI [24]: 0.638 µM
TGI [25]: < 0.0001 µM
TGI [26]: 23.7 µM
TGI [28]: < 0.0001 µM
TGI [54]: 0.00431 µM
TGI [62]: 0.023 µM
TGI [29]: > 100 µM
GI50 [31]: 0.00139 µM
TGI [31]: > 100 µM
TGI [32]: < 0.0494 µM
TGI [55]: < 0.0001 µM
TGI [35]: 0.0464 µM
TGI [36]: > 100 µM
TGI [37]: 15.9 µM
TGI [39]: > 100 µM
TGI [56]: 0.00065 µM and < 0.0393 µM
TGI [40]: 0.0303 µM
TGI [41]: 0.00347 µM
GI50 [43]: > 47 µM
TGI [43]: > 100 µM
TGI [44]: > 35 µM
TGI [63]: 0.043 µM
TGI [57]: > 58.7 µM
TGI [46]: > 25.7 µM
TGI [48]: 32.8 µM
GI50 [50]: 0.258 µM
GI50 [58]: 0.348 µM
TGI [58]: 19.9 µM

COc1ccc2c3c(coc13)C(CCC(=O)O)CC2 (configuration not stated)
TGI [2]: > 100 µM
TGI [52]: > 100 µM
TGI [4]: > 100 µM
TGI [5]: > 100 µM
TGI [7]: > 100 µM
TGI [9]: > 100 µM
TGI [11]: > 100 µM
TGI [12]: > 100 µM
TGI [14]: > 100 µM
TGI [15]: > 100 µM
TGI [53]: > 100 µM
TGI [16]: > 100 µM
TGI [17]: > 100 µM
TGI [20]: > 100 µM
TGI [21]: > 100 µM
TGI [22]: > 100 µM
TGI [23]: > 100 µM
TGI [24]: > 100 µM
TGI [25]: > 100 µM
TGI [27]: > 100 µM
TGI [28]: > 100 µM
TGI [54]: > 100 µM
TGI [29]: > 100 µM
TGI [30]: > 100 µM
TGI [31]: > 100 µM
TGI [33]: > 100 µM
TGI [55]: > 100 µM
TGI [36]: > 100 µM
TGI [37]: > 100 µM
TGI [38]: > 100 µM
TGI [39]: > 100 µM
TGI [40]: > 100 µM
TGI [41]: > 100 µM
TGI [42]: > 100 µM
TGI [43]: > 100 µM
TGI [44]: > 100 µM
TGI [57]: > 100 µM
TGI [45]: > 100 µM
TGI [46]: > 100 µM
TGI [47]: > 100 µM
TGI [48]: > 100 µM
TGI [49]: > 100 µM
TGI [50]: > 100 µM
TGI [58]: > 100 µM
